Where two headings read alike, the source gives them in different places.
Key:
Type in all cases: biochemical
almond β-glucosidase = experiment: Glycosidase inhibition, almond β-glucosidase; details: for inhibition %: in methanol
Text: (§1) Glycosidase modulation studies need to explore selectivity as well as potency. Our drugs and controls are therefore screened against a panel of glycosidases in methanol (Table 1) to identify the glycosidase-related disease area(s), selectivity profile, and potency of biological action for each drug. The presence of organic boron covalently bonded to the drug structure also grants a reduced toxicity profile. Following the glycosidase inhibition range recommendations, an IC50 value >250 μm denotes weak inhibition, 100–249 μm denotes moderate inhibition, 10–99 μm good inhibition, 0.1–9 μm potent inhibition, and <0.1 μm very potent inhibition. […] Our boronated D-galactose 7 represents a novel lead in glycosidase inhibition.
(§2) The glycosidases screened are the following: rice α-glucosidase, yeast α-glucosidase, Bacillus α-glucosidase, rat intestinal maltase α-glucosidase, almond β-glucosidase, bovine liver β-glucosidase, coffee beans α-galactosidase, bovine liver β-galactosidase, Jack bean α-mannosidase, snail β-mannosidase, Penicillium decumbens α-L-rhamnosidase, bovine kidney α-L-fucosidase, Eschierichia coli β-glucuronidase, bovine liver β-glucuronidase, porcine kidney trehalase, Aspergillus niger amyloglucosidase, and bovine kidney N-acetyl-β-glucosaminidase. The disease areas for each glycosidase are summarized in [1].
(§3) The enzymes α-glucosidase (from yeast), β-glucosidases (from almond and bovine liver), α-galactosidase (from coffee beans), β-galactosidase (from bovine liver), α-mannosidase (from Jack bean), β-mannosidase (from snail), α-L-rhamnosidase (from Penicillium decumbens), α-L-fucosidase (from bovine kidney), trehalase (from porcine kidney), β-glucuronidases (from E. coli and bovine liver), amyloglucosidase (from A. niger), para-nitrophenyl glycosides, and various disaccharides were purchased from Sigma-Aldrich Co.
(§4) Brush border membranes were prepared from the rat small intestine according to the method of Kessler et al. and were assayed at pH 6.8 for rat intestinal maltase using maltose. For rat intestinal maltase, porcine kidney trehalase, and A. niger amyloglucosidase activities, the reaction mixture contained 25 mM maltose and the appropriate amount of enzyme, and the incubations were performed for 10–30 min at 37 °C. The reaction was stopped by heating at 100 °C for 3 min. After centrifugation (600 g; 10 min), the resulting reaction mixture was added to the Glucose CII-test Wako (Wako Pure Chemical Ind., Osaka, Japan). The absorbance at 505 nm was measured to determine the amount of the released D-glucose. Other glycosidase activities were determined using an appropriate para-nitrophenyl glycoside as substrate at the optimum pH of each enzyme. The reaction mixture contained 2 mM of the substrate and the appropriate amount of enzyme. The reaction was stopped by the addition of 400 mM Na2CO3. The released para-nitrophenol was measured spectrometrically at 400 nm. All reactions run in methanol.

[1] = test system: bovine liver β-glucosidase; experiment: Glycosidase inhibition, bovine liver β-glucosidase; details: for inhibition %: in methanol
Text: as §1, §2, §3, §4

Jack bean α-mannosidase = biological target: T1, Jack bean α-mannosidase (Canavalia ensiformis, UniProt C0HJB3); experiment: Glycosidase inhibition, Jack bean α-mannosidase
T1 construct: purchased Sigma-Aldrich Co
T1 sequence (C0HJB3 1-981): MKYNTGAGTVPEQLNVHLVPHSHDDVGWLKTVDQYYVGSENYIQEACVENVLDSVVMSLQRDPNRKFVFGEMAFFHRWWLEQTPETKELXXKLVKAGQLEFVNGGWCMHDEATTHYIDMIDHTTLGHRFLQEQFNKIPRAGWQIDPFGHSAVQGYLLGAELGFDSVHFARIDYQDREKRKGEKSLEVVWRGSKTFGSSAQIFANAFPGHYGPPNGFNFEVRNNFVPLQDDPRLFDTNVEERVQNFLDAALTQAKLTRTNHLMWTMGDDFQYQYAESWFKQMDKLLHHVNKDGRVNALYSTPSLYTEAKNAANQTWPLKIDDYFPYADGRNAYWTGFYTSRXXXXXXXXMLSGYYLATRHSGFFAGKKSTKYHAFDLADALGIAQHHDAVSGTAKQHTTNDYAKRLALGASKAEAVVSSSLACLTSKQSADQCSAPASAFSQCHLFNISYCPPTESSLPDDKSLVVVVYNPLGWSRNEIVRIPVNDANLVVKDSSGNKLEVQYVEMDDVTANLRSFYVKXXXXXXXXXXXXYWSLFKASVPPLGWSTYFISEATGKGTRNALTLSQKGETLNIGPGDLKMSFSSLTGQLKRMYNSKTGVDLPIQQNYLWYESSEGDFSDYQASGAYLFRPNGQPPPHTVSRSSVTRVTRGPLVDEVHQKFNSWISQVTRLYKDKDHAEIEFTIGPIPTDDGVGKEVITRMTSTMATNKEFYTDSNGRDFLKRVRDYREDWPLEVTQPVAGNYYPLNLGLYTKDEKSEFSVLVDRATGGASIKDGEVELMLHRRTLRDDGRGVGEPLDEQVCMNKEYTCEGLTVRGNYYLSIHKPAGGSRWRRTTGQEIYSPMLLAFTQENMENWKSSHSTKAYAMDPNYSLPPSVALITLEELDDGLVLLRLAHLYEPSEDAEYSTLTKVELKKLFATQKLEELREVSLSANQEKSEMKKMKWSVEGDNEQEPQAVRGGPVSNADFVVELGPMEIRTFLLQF
Text: as §1, §2, §3, §4

[2] = test system: Penicillium decumbens α-L-rhamnosidase; experiment: Glycosidase inhibition, Penicillium decumbens α-L-rhamnosidase; details: for inhibition %: in methanol
Text: as §1, §2, §3, §4

porcine kidney trehalase = biological target: T2, porcine kidney trehalase (Sus scrofa, UniProt I3LIR5); experiment: Glycosidase inhibition, porcine kidney trehalase
T2 construct: purchased Sigma-Aldrich Co; host or cells: porcine kidney
T2 sequence (I3LIR5 24-583): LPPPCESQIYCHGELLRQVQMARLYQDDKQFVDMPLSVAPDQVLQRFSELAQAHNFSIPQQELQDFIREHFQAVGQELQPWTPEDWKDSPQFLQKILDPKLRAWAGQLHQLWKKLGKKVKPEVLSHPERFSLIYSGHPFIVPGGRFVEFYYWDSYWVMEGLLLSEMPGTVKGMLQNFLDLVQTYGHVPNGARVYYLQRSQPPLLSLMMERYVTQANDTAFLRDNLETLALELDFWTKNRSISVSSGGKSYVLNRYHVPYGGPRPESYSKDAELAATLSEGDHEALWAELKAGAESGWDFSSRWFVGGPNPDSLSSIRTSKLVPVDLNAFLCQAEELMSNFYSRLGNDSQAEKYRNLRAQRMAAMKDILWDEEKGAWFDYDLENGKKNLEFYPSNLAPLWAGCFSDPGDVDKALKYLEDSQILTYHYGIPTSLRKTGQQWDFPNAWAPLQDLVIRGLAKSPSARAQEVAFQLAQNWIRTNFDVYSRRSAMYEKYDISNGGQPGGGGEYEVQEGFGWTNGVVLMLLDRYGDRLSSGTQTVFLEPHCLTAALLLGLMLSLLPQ
Text: as §1, §2, §3, §4

[3] = biological target: T3, Aspergillus niger amyloglucosidase (Aspergillus niger, UniProt P69328); experiment: Glycosidase inhibition, A. niger amyloglucosidase
T3 construct: purchased Sigma-Aldrich Co
T3 sequence (P69328 25-640): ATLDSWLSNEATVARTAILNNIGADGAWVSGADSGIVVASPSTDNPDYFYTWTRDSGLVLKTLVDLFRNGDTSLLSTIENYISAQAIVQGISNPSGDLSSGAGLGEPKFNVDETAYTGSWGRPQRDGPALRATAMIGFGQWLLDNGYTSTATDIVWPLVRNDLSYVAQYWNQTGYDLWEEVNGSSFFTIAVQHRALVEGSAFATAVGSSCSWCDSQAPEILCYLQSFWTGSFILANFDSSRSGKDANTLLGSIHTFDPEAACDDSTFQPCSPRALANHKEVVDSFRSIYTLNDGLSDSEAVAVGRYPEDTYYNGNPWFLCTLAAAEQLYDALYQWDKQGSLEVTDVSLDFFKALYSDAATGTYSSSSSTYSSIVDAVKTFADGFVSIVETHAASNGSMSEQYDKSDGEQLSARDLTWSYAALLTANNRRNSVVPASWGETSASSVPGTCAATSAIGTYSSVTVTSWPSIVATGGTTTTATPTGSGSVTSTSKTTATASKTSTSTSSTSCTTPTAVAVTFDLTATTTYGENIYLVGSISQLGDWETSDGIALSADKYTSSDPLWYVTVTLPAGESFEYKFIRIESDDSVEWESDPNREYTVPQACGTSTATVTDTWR
Text: as §1, §2, §3, §4

[4] = at 1000 μM, in methanol, read-out: inhibition %
[5] = at 1000 μM, read-out: NI: No inhibition
[6] = at 100 μM, in methanol, read-out: inhibition %
[7] = at 100 μM, read-out: NI: No inhibition

With OCC1OC(O)C(O)C(B(O)O)C1O [Compound 7, 3-Boronic-3-Deoxy-D-galactose] the “NI: No inhibition” value (almond β-glucosidase; at 1000 μM) was “NI (No inhibition (less than 50% inhibition at 1000 μM))”, the inhibition % (almond β-glucosidase; at 1000 μM) was 1.3% and the “NI: No inhibition” value ([1]; at 1000 μM) was “NI (No inhibition (less than 50% inhibition at 1000 μM))”. The inhibition % ([1]; at 1000 μM) was 12.6%, the inhibition at 1000 µM (Jack bean α-mannosidase; [4]) was 0% and the inhibition at 1000 µM (Jack bean α-mannosidase; [5]) was < 50%. For the same compound, the “NI: No inhibition” value ([2]; at 1000 μM) was “NI (No inhibition (less than 50% inhibition at 1000 μM))”, the inhibition % ([2]; at 1000 μM) was 0% and the inhibition at 1000 µM (porcine kidney trehalase; [4]) was 0.5%. For the same compound, the inhibition at 1000 µM (porcine kidney trehalase; [5]) was < 50%, the inhibition at 1000 µM [3, 4] was 1.5% and the inhibition at 1000 µM [3, 5] was < 50%.

CC1(C)OCC(C2OC3OC(C)(C)OC3C2[B-]23OCC[NH+]2CCO3)O1 [Compound 6, 3-Deoxy-3-Boronodiethanolamine-1,2:5,6-Di-O-isopropylidene-α-D-galactofuranose] was tested, and the “NI: No inhibition” value (almond β-glucosidase; at 100 μM) was “NI (No inhibition (less than 50% inhibition at 100 μM))”, the inhibition % (almond β-glucosidase; at 100 μM) was 0.3% and the “NI: No inhibition” value ([1]; at 100 μM) was “NI (No inhibition (less than 50% inhibition at 100 μM))”. The inhibition % ([1]; at 100 μM) was 12.2%, the inhibition at 100 µM (Jack bean α-mannosidase; [6]) was 0% and the inhibition at 100 µM (Jack bean α-mannosidase; [7]) was < 50%. For the same compound, the “NI: No inhibition” value ([2]; at 100 μM) was “NI (No inhibition (less than 50% inhibition at 100 μM))”, the inhibition % ([2]; at 100 μM) was 0.3% and the inhibition at 100 µM (porcine kidney trehalase; [6]) was 0%. The inhibition at 100 µM (porcine kidney trehalase; [7]) was < 50%, the inhibition at 100 µM [3, 6] was 0% and the inhibition at 100 µM [3, 7] was < 50%.

N[C@@H](Cc1ccc(B(O)O)cc1)C(=O)O [BPA, 4-borono-L-phenylalanine] was tested, and the “NI: No inhibition” value (almond β-glucosidase; at 100 μM) was “NI (No inhibition (less than 50% inhibition at 100 μM))”, the inhibition % (almond β-glucosidase; at 100 μM) was 0% and the “NI: No inhibition” value ([1]; at 100 μM) was “NI (No inhibition (less than 50% inhibition at 100 μM))”. For the same compound, the inhibition % ([1]; at 100 μM) was 0%, the inhibition at 100 µM (Jack bean α-mannosidase; [6]) was 1.1% and the inhibition at 100 µM (Jack bean α-mannosidase; [7]) was < 50%. For the same compound, the “NI: No inhibition” value ([2]; at 100 μM) was “NI (No inhibition (less than 50% inhibition at 100 μM))”, the inhibition % ([2]; at 100 μM) was 0% and the inhibition at 100 µM (porcine kidney trehalase; [6]) was 0%. The inhibition at 100 µM (porcine kidney trehalase; [7]) was < 50%, the inhibition at 100 µM [3, 6] was 0% and the inhibition at 100 µM [3, 7] was < 50%.

For N[C@@H](Cc1ccc(B(O)O)cc1)C(=O)O [^10B-BPA], the “NI: No inhibition” value (almond β-glucosidase; at 100 μM) was “NI (No inhibition (less than 50% inhibition at 100 μM))”, the inhibition % (almond β-glucosidase; at 100 μM) was 0% and the “NI: No inhibition” value ([1]; at 100 μM) was “NI (No inhibition (less than 50% inhibition at 100 μM))”. For the same compound, the inhibition % ([1]; at 100 μM) was 14.2%, the “NI: No inhibition” value (Jack bean α-mannosidase; at 100 μM) was “NI (No inhibition (less than 50% inhibition at 100 μM))” and the inhibition % (Jack bean α-mannosidase; at 100 μM, in methanol) was 0%. The “NI: No inhibition” value ([2]; at 100 μM) was “NI (No inhibition (less than 50% inhibition at 100 μM))”, the inhibition % ([2]; at 100 μM) was 0% and the “NI: No inhibition” value (porcine kidney trehalase; at 100 μM) was “NI (No inhibition (less than 50% inhibition at 100 μM))”. The inhibition % (porcine kidney trehalase; at 100 μM, in methanol) was 0% and the inhibition % ([3]; at 100 μM, in methanol) was 0%.

For Borocaptate sodium [BSH], the “NI: No inhibition” value (almond β-glucosidase; at 1000 μM) was “NI (No inhibition (less than 50% inhibition at 1000 μM))”, the inhibition % (almond β-glucosidase; at 1000 μM) was 0% and the “NI: No inhibition” value ([1]; at 1000 μM) was “NI (No inhibition (less than 50% inhibition at 1000 μM))”. The inhibition % ([1]; at 1000 μM) was 15%, the “NI: No inhibition” value (Jack bean α-mannosidase; at 1000 μM) was “NI (No inhibition (less than 50% inhibition at 1000 μM))” and the inhibition % (Jack bean α-mannosidase; at 1000 μM, in methanol) was 7.9%. For the same compound, the “NI: No inhibition” value ([2]; at 1000 μM) was “NI (No inhibition (less than 50% inhibition at 1000 μM))”, the inhibition % ([2]; at 1000 μM) was 0.2% and the “NI: No inhibition” value (porcine kidney trehalase; at 1000 μM) was “NI (No inhibition (less than 50% inhibition at 1000 μM))”. The inhibition % (porcine kidney trehalase; at 1000 μM, in methanol) was 4.2% and the inhibition % ([3]; at 1000 μM, in methanol) was 0%.
